Series [1] deals with T1, IN-LEDGF/p75 (Human immunodeficiency virus type 1 group M subtype B, UniProt P12497). Set-up: method as in PMID 22437836. As to conditions: HTRF; read-out: IC50 for IN-LEDGF/75 binding; cited from earlier work. A general note: Time-resolved FRET reads energy transfer from a long-lived donor to a nearby acceptor.
In another series the test system is A128T IN HIV-1NL4-3. Description: A128T HIV-1 infectivity in TZM-bl cells. Type of series: cell-based. As to conditions: particles produced in presence of inhibitor.
The subject of series [2] is HIV-1NL4-3. As to conditions: cited from earlier work.
The subject of series [3] is HIV-1NL4-3. Description: microbe, parasite or virus in culture. As to conditions: for Selectivity Index, CC50/IC50: CC50 for cytotoxicity by IC50 for antiviral activity. Format: cell-based.
The next series is described as follows: in vitro. Type of series: cell-based. The procedure: The cytotoxcity assays were performed as described previously. The fitted dose-response curves were generated to calculate EC50 or CC50 using Origin software (OriginLab, Inc.).
Series [4] addresses T2, HIV-1 IN (Human immunodeficiency virus type 1 group M subtype B, UniProt P12497). Also on record: DLS analysis of KF116-induced multimerization of recombinant IN; method as in PMID 22437836. As to conditions: HTRF; read-out: EC50 for aberrant IN multimerization; cited from earlier work.
The target of series [5] is T2, HIV-1 IN. As to conditions: IC50 for inhibiting IN-LEDGF/p75 binding divided by EC50 for aberrant IN multimerization; fold.
Procedure: (§1) HTRF-based IN multimerization and IN-LEDGF/p75 binding assays were carried out as described previously [33]. The HTRF signal was recorded using a Perkin Elmer Multimode EnSpire plate reader.
In series [6] the test system is VSV-G pseudotyped HIV-1-Luc in PSIP1 KO HEK293T cells. Description: microbe, parasite or virus in culture. Type of series: cell-based.
Series [7] has as its system LEDGF/p75-dependent HIV-1 integration. Description: HIV-1 integration site distribution (ligation-mediated PCR, 454-pyrosequencing). Type of series: cell-based.
Another series relates to HIV-1 expression. Type of series: cell-based. The conditions noted are these: for inhibition of HIV-1 expression: target cells.
Series [8] relates to HIV-1. Set-up: method as in PMID 24040198. The conditions noted are these: ref 41; read-out: IC50 in target cells; cited from earlier work.
Series [9] has as its system HIV-1. The experiment in a line: Antiviral assay, late stage (inhibitor added to producer cells). Type of series: cell-based. As to conditions: Human immunodeficiency virus 1, virions prepared in presence of inhibitor, untreated target cells; called IC50.
Procedure: Results represent mean ± SD from three independent experiments.
For late stage experiments, the progeny virions were prepared in the presence of the indicated concentrations of the test inhibitor or diluent control (DMSO) and were then used to infect untreated target cells.
Series [10] concerns the target T2, HIV-1 IN. Description: biochemical.
Procedure: as §1
For series [11], the target named is T1, IN-LEDGF/p75. The experiment in a line: HTRF-based IN-LEDGF/p75 binding assay. Set-up: species or system HIV-1.
Procedure: HTRF-based IN multimerization and IN-LEDGF/p75 binding assays were carried out as described previously [33].
The test system of series [12] is VSV-G pseudotyped HIV-1-Luc. Format: cell-based.
Series [13] deals with the molecule itself. The experiment in a line: AlphaScreen or HTRF; HTRF-based IN multimerization assay in vitro, compound (KF115 or KF116) titrated; carried out as described in ref. 33. In general terms: Alpha assays give light when donor and acceptor beads are brought close together.
Series [14] deals with the molecule itself. Description: cross-linking; concentrated, detergent-lysed virions (50 ng p24) from HEK293T cells treated with DMSO or 1 µM KF116; 50 µM BS3; SDS-PAGE and immunoblot with HIV-1 IN antibody. In general terms: A western blot detects proteins with antibodies after separation by electrophoresis.
Where [15] appears, read: ref 33, 41, read-out: antiviral activity IC50.
Where [16] appears, read: Target, 5 µM, *** P<0.001 vs DMSO.
[17] abbreviates: target cells, 10 µM, *** P<0.001 vs DMSO.

Read-outs that look alike come from different tables or passages of the source.

In general, CC50 refers to the concentration giving 50% cytotoxicity. The term EC50 denotes the concentration that produces a half-maximal response. Usually stoichiometry N stands for the number of molecules, sites or subunits per partner or assembly.

For `COC(C(=O)O)c1c(C)nc2ccc(Br)cc2c1-c1ccc(Cl)cc1` (stereo not drawn) [BI-1001, reference compound], the IC50 was 1000 ± 100 nM on IN-LEDGF/p75 [1]; about 5800 nM in the series on HIV-1NL4-3 [2] (setting [15]); 5800 ± 100 nM in the series with HIV-1NL4-3 [2] (ref 33, read-out: Antiviral activity (IC50)). Also, the “A128T IN HIV-1NL4-3 replication in infected cells” value in the series with A128T IN HIV-1NL4-3 is on record as “marked resistance”. Further, the “Selectivity Index, CC50/IC50” value with HIV-1NL4-3 [3] is listed as over 17. The molecule also showed a 50% cytotoxic concentration (CC50) in the series “in vitro” of over 100000 nM. In addition, the EC50 at HIV-1 IN [4] was 4900 ± 300 nM. At HIV-1 IN [5], the “Selectivity ratio, IC50 IN-LEDGF/EC50 aberrant IN multimerization” value was 0.2.

As to `Cc1nc2ccccc2c(-c2cc(F)c3c(c2C)CCCO3)c1[C@H](OC(C)(C)C)C(=O)O` [GS-B, reference compound], the “effect of complete loss of LEDGF/p75 protein in virus-producer cells on IC50 values” in series [6] was “did not alter”. The IC50 in the series with HIV-1NL4-3 [2] (setting [15]) is about 26 nM; in the series on HIV-1 [8] it was about 700 nM. For the same molecule, the concentration for a half-maximal effect (EC50) in the series with HIV-1NL4-3 [2] (same value given in b14 with ref 33, 41, read-out: EC50 for full replication cycle) is about 26 nM; in the series with HIV-1 [9] it was 39 nM. The “% in RefSeq (HIV-1 integration frequency)” value in series [7] (Producer, 100 nM) turned out to be 84.00%; in [7] (setting [16]) it was 73.83%; in [7] (setting [17]), 74.76%. Moreover, the “% in known genes (HIV-1 integration frequency)” value in [7] (Producer, 100 nM) came to 85.71%; in series [7] (setting [16]), 75.74%; in [7] (setting [17]) it was 77.39%. For the same molecule, the “inhibition of HIV-1 expression” value in the series with HIV-1 expression (5 µM) is given as about 71%; in the series on HIV-1 expression (10 µM), about 88%. In the series with HIV-1 expression (virus-producer cells treated with 0.1 µM), the “reduction in target cell HIV-1 expression” value is on record as about 77%.

For the molecule `Cc1ccc(-c2nc(C)c(C(OC(C)(C)C)C(=O)O)c(-c3ccc(Cl)cc3)c2C)cc1C` (stereo not drawn) [KF115], the midpoint of the response on HIV-1 IN [10], the EC50, lay at 274 ± 25 nM. Besides, the IC50 is 13000 ± 1500 nM at IN-LEDGF/p75 [11] and about 121 nM in the series on HIV-1NL4-3 [3] (Human immunodeficiency virus 1, read-out: Antiviral activity (IC50), HIV-1NL4-3, full replication cycle). In addition, in the series with HIV-1NL4-3 [3], the “Selectivity Index, CC50/IC50” value is recorded as over 826. Further, the CC50 in “in vitro” is over 100000 nM. The “Selectivity ratio, IC50 IN-LEDGF/EC50 aberrant IN multimerization” value on HIV-1 IN [5] is listed as 47.4.

In the case of `Cc1nnc(C(=O)NC(C)(C)c2nc(C(=O)NCc3ccc(F)cc3)c(O)c(=O)n2C)o1` [RAL, Raltegravir, reference compound], in series [12], the “effect on replication intermediates in target cells of virions produced in presence of inhibitor” value was “no inhibitory effects”; the “effect on replication intermediates when inhibitor added to target cells” value is “selectively inhibited the integration step and increased the levels of 2-LTRs”.

B1: HIV-1 integrase (recombinant IN) (enzyme)
chain: FLDGIDKAQEEHEKYHSNWRAMASDFNLPPVVAKEIVASCDKCQLKGEAMHGQVDCSPGIWQLDCTHLEGKVILVAVHVASGYIEAEVIPAETGQETAYFLLKLAGRWPVKTVHTDNGSNFTSTTVKAACWWAGIKQEFGIPYNPQSQGVIESMNKELKKIIGQVRDQAEHLKTAVQMAVFIHNFKRKGGIGGYSAGERIVDIIATDIQTKELQKQITKIQNFRVYYRDSRDPVWKGPAKLLWKGEGAVVIQDNSDIKVVPRRKAKIIRDYGKQMAGDDCVASRQDED
notes: also called WT IN; source: recombinant
Take B1: in series [13], the “EC50 of KF115 for aberrant IN multimerization (with KF115)” value was 274 nM and the “EC50 of KF116 for aberrant IN multimerization (with KF116)” value worked out at 86 nM.

B2: HIV-1 integrase in virus particles (enzyme)
chain: FLDGIDKAQEEHEKYHSNWRAMASDFNLPPVVAKEIVASCDKCQLKGEAMHGQVDCSPGIWQLDCTHLEGKVILVAVHVASGYIEAEVIPAETGQETAYFLLKLAGRWPVKTVHTDNGSNFTSTTVKAACWWAGIKQEFGIPYNPQSQGVIESMNKELKKIIGQVRDQAEHLKTAVQMAVFIHNFKRKGGIGGYSAGERIVDIIATDIQTKELQKQITKIQNFRVYYRDSRDPVWKGPAKLLWKGEGAVVIQDNSDIKVVPRRKAKIIRDYGKQMAGDDCVASRQDED
notes: also called virion-associated IN
Regarding B2, the “stoichiometry N” value in [14] amounted to 2.

These data come from paper PMC4038613, “A New Class of Multimerization Selective Inhibitors of HIV-1 Integrase” (PLoS Pathogens, 2014).
